From patent publication EP0286316A1, “1,2,4-Trioxane Derivatives” (Jefford, Charles W., priority 1987, dated 1988)

Assays:
[1] = test system: Plasmodium falciparum chloroquine-sensitive clone: Sierra Leone-D6 (SL-D6); experiment: in vitro anti-malarial activity, semiautomated microdilution technique, chloroquine-sensitive clone; assay type: cell-based; settings: clone S6-D6; for I-QHS: index of activity (IC50) relative to Qinghaosu under the same conditions; for I-CHLQ: index of activity (IC50) relative to chloroquine under the same conditions
Source text: (§1) Determination of anti-malarial activity of the compounds was effected according to the methods published by R E Desjardins et al and W K Milhous et al (Desjardins, R.E., C.J. Cranfield, D.E. Haynes, and J.D. Chulay. 1979. Quantitative assessment of anitmalarial activity in vitro by a semiautomated microdilution technique. Antimicrob. Agents Chemother. 16:710-718. Milhous, W.K., N.F. Weatherley, J.H. Bowdre, and R.E. Desjardins. 1985. In vitro activities of and mechanisms of resistance to antifol antimalarials. Antimicrob. Agents Chemother. 27:525-530). For such determinations, the following clones of Plasmodium falciparum were used: chloroquine-resistant clone: Indochina-W2 (IndCh-W2) chloroquine-sensitive clone: Sierra Leone-D6 (SL-D6) The activity measured was then compared as indexes under the same conditions to the activity of Qinghaosu (I-QHS) and chloroquine (I-CHLQ), respectively. The indexes (I) provide a measure of the activity of the 1,2,4-trioxane derivatives tested in relation to the activity of the known anti-malarial substances.

[2] = test system: Plasmodium falciparum chloroquine-resistant clone: Indochina-W2 (IndCh-W2); experiment: in vitro anti-malarial activity, semiautomated microdilution technique, chloroquine-resistant clone; assay type: cell-based; settings: for I-QHS: index of activity (IC50) relative to Qinghaosu under the same conditions; for I-CHLQ: index of activity (IC50) relative to chloroquine under the same conditions
Source text: as §1

[3] = test system: mefloquine-resistant clones of Plasmodium falciparum (MEF-W2); experiment: in vitro anti-malarial activity, mefloquine-resistant clones; assay type: cell-based; settings: index of activity (IC50) relative to Qinghaosu; clone MEF-W2
Source text: as §1
Certain derivatives of 1,2,4-trioxane listed below were tested against mefloquine-resistant clones of Plasmodium falciparum (MEF-W2), according to the method previously cited.

[4] = test system: mixed lymphocyte reaction; experiment: immunomodulatory activity (in vitro mitogenic assay; mixed lymphocyte reaction); assay type: cell-based
Description: Several of the compounds mentioned in Examples 1 to 17 were also tested for immunomodulatory activity (in vitro mitogenic assay; mixed lymphocyte reaction).

[5] = test system: chloroquine-resistant strains of P. falciparum; settings: cited from earlier work

| Structure (SMILES) | I-QHS [1] | I-QHS [2] | I-CHLQ [1] | I-CHLQ [2] | I-QHS [3] | immunomodulatory activity [4] | activity against chloroquine-resistant strains of P. falciparum [5] |
| --- | --- | --- | --- | --- | --- | --- | --- |
| O=C1CCC2(CC1)OO[C@]1(c3ccccc3)CC(c3ccccc3)=C[C@@H]1O2 (racemic) [Compound 17] | 1.06 | 2.1 |  |  |  |  |  |
| C1=C(c2ccccc2)C[C@@]2(c3ccccc3)OOC3(CCC4(CC3)OCCO4)O[C@@H]12 (racemic) [Compound 20] | 0.39 | 0.67 |  |  |  |  |  |
| CC1(C)OO[C@]2(c3ccccc3)CC(c3ccccc3)=C[C@@H]2O1 [Compound 1] | 0.18 | 0.13 | 0.20 | 5.7 | 0.15 |  |  |
| CC1(C)OO[C@]2(c3ccccc3)C=C(c3ccccc3)[C@@H](O)[C@@H]2O1 [Compound 2] | 0.25 | 0.12 | 0.27 | 5.4 | 0.10 |  |  |
| C1=C(c2ccccc2)C[C@@]2(c3ccccc3)OOC3(CCCC3)O[C@@H]12 [Compound 4] | 0.79 | 2.1 | 0.82 | 12.2 |  |  |  |
| C1=C(c2ccccc2)C[C@@]2(c3ccccc3)OOC3(CCCCC3)O[C@@H]12 [Compound 5] | 0.20 | 0.26 | 0.20 | 1.5 |  |  |  |
| CC1(C)OO[C@]2(c3ccccc3)C=C(c3ccccc3)[C@@H](OC(=O)c3ccccc3F)[C@@H]2O1 [Compound 7] | 0.05 | 0.04 | 0.06 | 1.6 |  |  |  |
| CC(C)OC(=O)O[C@@H]1C(c2ccccc2)=C[C@@]2(c3ccccc3)OOC(C)(C)O[C@@H]12 [Compound 8] | 0.16 | 0.10 | 0.18 | 4.2 |  |  |  |
| CC1(C)OO[C@]2(c3ccccc3)C=C(c3ccccc3)C(=O)[C@@H]2O1 [Compound 9] | 0.20 | 0.08 | 0.21 | 3.5 |  |  |  |
| CC(C)CC(=O)O[C@@H]1C(c2ccccc2)=C[C@@]2(c3ccccc3)OOC(C)(C)O[C@@H]12 [Compound 10] | 0.09 | 0.04 | 0.10 | 1.7 |  |  |  |
| O[C@@H]1C(c2ccccc2)=C[C@@]2(c3ccccc3)OOC3(CCCC3)O[C@@H]12 [Compound 11] | 1.85 | 4.7 | 1.16 | 73.8 |  |  |  |
| C1=C(c2ccccc2)C[C@@]2(c3ccccc3)OOC3(CCOCC3)O[C@@H]12 [Compound 12] | 1.10 | 18.7 | 0.67 | 295.3 |  | most important activity |  |
| OO[C@@H]1C(c2ccccc2)=C[C@@]2(c3ccccc3)OOC3(CCCCC3)O[C@@H]12 [Compound 13] | 1.47 | 2.2 | 0.93 | 33.9 |  |  |  |
| O=C1C(c2ccccc2)=C[C@@]2(c3ccccc3)OOC3(CCCCC3)O[C@@H]12 [Compound 15] | 1.93 | 3.5 |  |  |  |  |  |
| O[C@@H]1C(c2ccccc2)=C[C@@]2(c3ccccc3)OOC3(CCCCC3)O[C@@H]12 [Compound 16] | 0.49 | 1.6 |  |  |  |  |  |
| CCOC(=O)CCCC1(C)OO[C@]2(c3ccccc3)CC(c3ccccc3)=C[C@@H]2O1 (stereo partly drawn) [Compound 18] | 0.28 | 0.09 |  |  |  |  |  |
| CCC1(C)OO[C@]2(c3ccccc3)CC(c3ccccc3)=C[C@@H]2O1 (stereo partly drawn) [Compound 21] | 0.36 | 0.075 |  |  |  |  |  |
| C[C@@H]1CC[C@H]2[C@@H](C)C(=O)O[C@@H]3O[C@@]4(C)CC[C@@H]1[C@]32OO4 [Qinghaosu] |  |  |  |  |  |  | remarkably active |
